ChEMBL document CHEMBL1909046, “DrugMatrix in vitro pharmacology data”

Assays:
Calcitonin receptor = biological target: T1, Calcitonin receptor (Homo sapiens, UniProt P30988); type: cell membranes, Membrane; conditions: t47d; also: in other assays of this panel Not Active means under 50% inhibition at 10 µM
T1 sequence (P30988 whole entry): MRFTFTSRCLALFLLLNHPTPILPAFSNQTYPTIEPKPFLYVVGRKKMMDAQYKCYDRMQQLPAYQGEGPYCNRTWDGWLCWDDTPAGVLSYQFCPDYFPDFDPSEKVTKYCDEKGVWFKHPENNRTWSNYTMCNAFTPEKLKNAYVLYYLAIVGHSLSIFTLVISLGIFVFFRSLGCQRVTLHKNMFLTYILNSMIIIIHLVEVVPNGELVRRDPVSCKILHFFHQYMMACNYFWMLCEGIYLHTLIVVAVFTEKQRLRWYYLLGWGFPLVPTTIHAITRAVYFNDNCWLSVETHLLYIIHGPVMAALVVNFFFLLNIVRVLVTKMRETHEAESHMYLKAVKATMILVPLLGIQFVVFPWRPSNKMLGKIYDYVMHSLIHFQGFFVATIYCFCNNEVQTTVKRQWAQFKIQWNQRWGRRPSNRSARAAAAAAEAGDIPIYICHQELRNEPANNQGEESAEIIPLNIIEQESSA

[1] = biological target: T2, C-X-C chemokine receptor type 2 (Homo sapiens, UniProt P25025); type: cell membranes, CHO-K1, Membrane; conditions: cho-k1; also: in other assays of this panel Not Active means under 50% inhibition at 10 µM
T2 sequence (P25025 whole entry): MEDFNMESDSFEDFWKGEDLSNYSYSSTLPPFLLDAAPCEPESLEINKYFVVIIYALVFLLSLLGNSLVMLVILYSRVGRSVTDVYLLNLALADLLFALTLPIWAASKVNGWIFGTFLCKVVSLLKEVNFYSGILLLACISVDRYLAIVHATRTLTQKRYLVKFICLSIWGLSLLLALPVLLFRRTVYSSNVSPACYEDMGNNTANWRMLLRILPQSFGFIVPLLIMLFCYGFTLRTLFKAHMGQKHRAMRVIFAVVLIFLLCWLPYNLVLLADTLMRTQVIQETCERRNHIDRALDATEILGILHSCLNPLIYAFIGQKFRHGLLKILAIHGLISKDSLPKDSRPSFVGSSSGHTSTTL

[2] = DRUGMATRIX: Glutamate, NMDA, Phencyclidine radioligand binding (ligand: [3H] TCP); type: cell membranes, Rattus norvegicus, Wistar, Cerebral cortex, Membrane; conditions: Not Active = under 50% inhibition at 10 µM
[3] = DRUGMATRIX: Platelet-Derived Growth Factor (PDGF) radioligand binding (ligand: [125I] PDGF); type: cell-based; conditions: nih3t3; Not Active = under 50% inhibition at 10 µM
Caspase-1 = biological target: T3, Caspase-1 (Homo sapiens, UniProt P29466); set-up: species or system Escherichia coli;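 also: Caspase-1 enzyme inhibition assay with a peptide substrate; in other assays of this panel Not Active means under 50% inhibition at 10 µM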
T3 sequence (P29466 whole entry): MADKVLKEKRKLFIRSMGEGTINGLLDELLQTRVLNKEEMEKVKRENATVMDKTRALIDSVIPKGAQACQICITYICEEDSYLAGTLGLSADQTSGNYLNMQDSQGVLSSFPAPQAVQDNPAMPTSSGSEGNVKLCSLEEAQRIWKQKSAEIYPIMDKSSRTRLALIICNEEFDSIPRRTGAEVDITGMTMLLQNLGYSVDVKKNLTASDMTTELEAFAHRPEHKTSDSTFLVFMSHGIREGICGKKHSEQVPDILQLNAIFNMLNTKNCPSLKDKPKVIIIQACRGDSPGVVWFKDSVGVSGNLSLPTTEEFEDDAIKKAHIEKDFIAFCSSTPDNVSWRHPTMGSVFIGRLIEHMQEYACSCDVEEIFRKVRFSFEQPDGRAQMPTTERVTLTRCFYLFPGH

[4] = biological target: Protein kinase C alpha type (Homo sapiens, UniProt P17252); type: cell-based; conditions: sf9;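 also: inhibition of PKCalpha kinase activity measured in an enzyme assay with histone as the phosphorylation substrate; in other assays of this panel Not Active means under 50% inhibition at 10 µM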
Acetylcholinesterase = Acetylcholinesterase (Homo sapiens, UniProt P22303); assay: DRUGMATRIX: Acetylcholinesterase enzyme inhibition (substrate: acetylthiocholine); type: cell-based, HEK293; conditions: hek293; Not Active = under 50% inhibition at 10 µM
Acetylcholinesterase, sequence (P22303 whole entry): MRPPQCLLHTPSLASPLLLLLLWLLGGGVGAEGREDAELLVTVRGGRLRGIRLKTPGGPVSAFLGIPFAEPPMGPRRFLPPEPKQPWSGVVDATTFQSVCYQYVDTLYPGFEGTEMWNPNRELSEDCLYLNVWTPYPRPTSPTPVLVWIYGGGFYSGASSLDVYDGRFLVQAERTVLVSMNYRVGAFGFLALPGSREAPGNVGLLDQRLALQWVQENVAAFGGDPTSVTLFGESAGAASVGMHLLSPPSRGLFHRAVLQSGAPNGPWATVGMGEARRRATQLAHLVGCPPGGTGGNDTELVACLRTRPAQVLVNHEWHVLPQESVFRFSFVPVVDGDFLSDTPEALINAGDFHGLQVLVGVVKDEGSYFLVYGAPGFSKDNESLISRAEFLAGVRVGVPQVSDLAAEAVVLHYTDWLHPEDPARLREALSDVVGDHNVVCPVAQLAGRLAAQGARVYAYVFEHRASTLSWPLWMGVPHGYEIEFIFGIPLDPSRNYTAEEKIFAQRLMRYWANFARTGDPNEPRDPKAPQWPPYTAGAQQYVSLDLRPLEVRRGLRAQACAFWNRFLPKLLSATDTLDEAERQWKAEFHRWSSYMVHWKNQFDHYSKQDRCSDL

| SMILES | IC50 (Calcitonin receptor) | IC50 [1] | IC50 [2] | Ki [2] | IC50 [3] | Ki [3] | IC50 (Caspase-1) | IC50 [4] | IC50 (Acetylcholinesterase) | IC50 (Caspase-1; read-out: IC50) |
| --- | --- | --- | --- | --- | --- | --- | --- | --- | --- | --- |
| Oc1ccc(/C=C/c2cc(O)cc(O)c2)cc1 [RESVERATROL] | Not Active | Not Active | Not Active | Not Active | Not Active | Not Active | Not Active | Not Active | Not Active | – |
| CC[C@@]1(O)C(=O)OCc2c1cc1n(c2=O)Cc2cc3c(CN(C)C)c(O)ccc3nc2-1 [TOPOTECAN] | Not Active | Not Active | Not Active | Not Active | Not Active | Not Active | Not Active | Not Active | Not Active | – |
| C=CCc1ccc2c(c1)OCO2 [SAFROLE] | Not Active | Not Active | Not Active | Not Active | Not Active | Not Active | Not Active | Not Active | Not Active | – |
| C1CCN2C[C@@H]3C[C@@H](CN4CCCC[C@@H]34)[C@H]2C1 [SPARTEINE] | Not Active | Not Active | Not Active | Not Active | Not Active | Not Active | Not Active | Not Active | Not Active | – |
| CC[C@H](C)C(=O)O[C@H]1CCC=C2C=C[C@H](C)[C@H](CC[C@@H]3C[C@@H](O)CC(=O)O3)[C@H]21 [MEVASTATIN] | Not Active | Not Active | Not Active | Not Active | Not Active | Not Active | Not Active | Not Active | Not Active | – |
| CS(=O)(=O)c1ccc(C2=C(c3ccccc3)C(=O)OC2)cc1 [ROFECOXIB] | Not Active | Not Active | Not Active | Not Active | Not Active | Not Active | Not Active | Not Active | Not Active | – |
| Cc1cn([C@H]2C=C[C@@H](CO)O2)c(=O)[nH]c1=O [STAVUDINE] | Not Active | Not Active | Not Active | Not Active | Not Active | Not Active | Not Active | Not Active | Not Active | – |
| Nc1nc(N)c2nc(-c3ccccc3)c(N)nc2n1 | Not Active | Not Active | Not Active | Not Active | Not Active | Not Active | – | Not Active | Not Active | 3.66 µM |
| Cc1[nH]c(=O)c(C#N)cc1-c1ccncc1 [MILRINONE] | Not Active | Not Active | Not Active | Not Active | Not Active | Not Active | Not Active | Not Active | Not Active | – |
| C[C@]12CCC(=O)C[C@@H]1CC[C@@H]1[C@@H]2CC[C@]2(C)[C@@H](O)CC[C@@H]12 [STANOLONE] | Not Active | Not Active | Not Active | Not Active | Not Active | Not Active | Not Active | Not Active | Not Active | – |
| CC1(C)[C@H](C(=O)O)N2C(=O)C[C@H]2S1(=O)=O [SULBACTAM] | Not Active | Not Active | Not Active | Not Active | Not Active | Not Active | Not Active | Not Active | Not Active | – |
| CCOC(=O)C1=C(C)NC(C)=C(C(=O)OCC)C1c1ccccc1/C=C/C(=O)OC(C)(C)C [LACIDIPINE] | Not Active | Not Active | Not Active | Not Active | Not Active | Not Active | Not Active | Not Active | Not Active | – |
| CC(N)C12CC3CC(CC(C3)C1)C2 (stereo unspecified) [RIMANTADINE] | Not Active | Not Active | Not Active | Not Active | Not Active | Not Active | Not Active | Not Active | Not Active | – |
| CO[C@@]12[C@H](COC(N)=O)C3=C(C(=O)C(C)=C(N)C3=O)N1C[C@@H]1N[C@@H]12 [MITOMYCIN] | Not Active | Not Active | Not Active | Not Active | Not Active | Not Active | Not Active | Not Active | Not Active | – |
